Results as given in PubChem BioAssay (NCI).
Values joined by “and” are separate entries in the source; they are usually repeats but may differ in a detail not shown here. Equal values may be shown once.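 Interpolation was linear, between the two tested concentrations surrounding the appropriate level; five concentrations were tested over 48 hours in 96-well plates. GI50 marks 50% less growth. TGI marks complete inhibition of growth.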

Legend:
Assay in all cases: NCI-60 cell line screen, 48 h
[1] = test system: ACHN renal
[2] = test system: UO-31 renal
[3] = test system: MALME-3M melanoma
[4] = test system: MDA-MB-435
[5] = test system: HCT-116 colon
[6] = test system: SW-620 colon
[7] = test system: NCI-H460 lung
[8] = test system: MDA-MB-231 breast
[9] = test system: U251 CNS
[10] = test system: SF-539 CNS

SMILES | GI50 [1] [µM] | GI50 [2] [µM] | TGI [2] | GI50 [3] [µM] | TGI [3] [µM] | GI50 [4] [µM] | TGI [4] | GI50 [5] [µM] | TGI [5] [µM] | GI50 [6] [µM] | TGI [6] [µM] | GI50 [7] | TGI [7] | GI50 [8] [µM] | TGI [8] [µM] | GI50 [9] [µM] | TGI [9] | GI50 [10] [µM] | TGI [10] | TGI [1]
Cc1ccc(NC(=O)c2cc3ccccc3cc2O)c(C)c1.Cc1ccc(NC(=O)c2cc3ccccc3cc2[O-])c(C)c1.[Ni+2] | 4.22 | 3.79 | 11.9 µM | 3.4 | 14.3 | 3.38 | 13.1 µM | 2.79 | 11.4 | 4.24 | 36.8 | 2.77 µM | 14.3 µM | 2.33 | 5.27 | 2.91 | 8.62 µM | 4.75 | 53.2 µM | 
N#Cc1nn(-c2cc(=O)[nH]c3ccc(Br)cc23)c(N)c1C#N | > 100 | > 100 | > 100 µM | > 100 | > 100 | > 100 | > 100 µM | > 100 | > 100 | > 100 | > 100 | > 100 µM | > 100 µM | > 100 | > 100 | 88.1 | > 100 µM | 51.7 | > 100 µM | > 100 µM
Cc1ccc(C2=NN(c3ccc(S(N)(=O)=O)cc3)C(c3cn(-c4ccccc4)nc3-c3ccccc3)C2)cc1 (stereo not given) | 9.51 | 5.38 | > 100 µM | 81 | > 100 | 10 | > 100 µM | 3.07 | 42 | 9.82 | > 100 | 4.22 µM | > 100 µM | 9.41 | 84.4 | 19.6 | > 100 µM | > 100 | > 100 µM | > 100 µM
Nc1c2ccccc2nc2ccccc12 (tested in a mixture with another compound) | 0.779 | 1.41 | 3.84 µM | 2.34 | 5.28 | 2.57 | 9 µM | 0.849 | 8.48 | 1.44 | 10.1 | 2.12 µM | 8.99 µM | 1.5 | 5.84 | 2.68 | 10.9 µM | 2.44 | 8.26 µM | 8.72 µM
O=[N+]([O-])c1cc2c(c([N+](=O)[O-])c1)Nc1ccccc1O2 | 6.97 | 2.76 | 36.5 µM | 4.08 | > 100 | 8 | > 100 µM | 4.49 | 63 | 10.7 | > 100 | 4.62 µM | 83.1 µM | 6.38 | 30.7 | 3.32 | 22.6 µM | 13.3 | 74.6 µM | 76.2 µM
CC(CN)[C@@H]1CC[C@]2(CO)CC[C@]3(C)[C@H](CC[C@@H]4[C@@]5(C)CCC(N)C(C)(C)[C@@H]5CC[C@]43C)[C@@H]12 (stereo not given in full) | 1.77 | 1.55 | 3.04 µM | 1.54 | 3.29 | 1.73 | 3.26 µM | 1.68 | 3.59 | 1.8 | 3.43 | 1.84 µM | 3.49 µM | 1.5 | 3.05 | 1.91 | 3.31 µM | 1.72 | 3.31 µM | 3.22 µM
C=C(CN(C)C)C(=O)c1ccc(Oc2ccccc2)cc1 |  |  | 8.72 µM |  | 9.18 |  | 10.3 µM |  | 5.32 |  | 9.27 |  | 51.6 µM |  | 15.5 |  | 23.7 µM |  | 12.2 µM | 5.08 µM
O=C(NCCCCCCNC(=O)OCc1ccc2c(Cl)cc(Cl)c(O)c2n1)OCc1ccc2c(Cl)cc(Cl)c(O)c2n1 | 0.353 | 0.619 | 1.95 µM | 1.42 | 2.77 | 0.443 | 1.71 µM | 0.209 | 0.693 | 0.303 | 0.984 | 1.23 µM | 3.12 µM | 1.17 | 2.49 | 1.44 | 2.92 µM | 0.468 | 1.63 µM | 1.32 µM
CC#CC(=O)N1CC[C@@H](n2c(=O)n(-c3ccc(Oc4ccccc4)cc3)c3c(N)ncnc32)C1 | 21.4 | 10.8 | > 100 µM | 18 | > 100 | 27.4 | > 100 µM | 24.8 | 98.4 | 47.6 | > 100 | 33 µM | > 100 µM | 19.5 | 72.6 | 35.8 | > 100 µM | 25 | > 100 µM | > 100 µM
Clc1ccc2c(NCCNc3nc(N4CCCC4)nc4ccccc34)ccnc2c1 | 1.64 | 1.26 | 2.51 µM | 1.91 | 3.6 | 1.6 | 3.11 µM | 0.309 | 1.02 | 0.1 | 1.45 | 0.22 µM | 0.506 µM | 0.811 | 2.24 | 1.49 | 3.15 µM | 1.76 | 3.25 µM | 3 µM
Nc1nc(-c2cccs2)cs1 |  |  | > 100 µM |  | > 100 |  | > 100 µM |  | > 100 |  | > 100 |  | > 100 µM |  | > 100 |  | > 100 µM |  | > 100 µM | > 100 µM
C=C(C)[C@@H]1CC[C@]2(C(N)=O)CC[C@]3(C)[C@H](CC[C@@H]4[C@@]5(C)C/C(=C/c6cccnc6)[C@H](O)C(C)(C)[C@@H]5CC[C@]43C)[C@@H]12 | 3.53 | 3.02 | > 100 µM | 4.91 | > 100 | 3.77 | > 100 µM | 2.22 | > 100 | 4.38 | > 100 | 4.22 µM | > 100 µM | 99.5 | > 100 | 4.61 | > 100 µM | 4.89 | > 100 µM | > 100 µM
Cn1c(=N)n[n+]([O-])c2ccccc21 |  |  | 8.83 µM and 17.6 µM |  | 6.15 |  | 1.83 µM and 2.39 µM |  | > 100 |  | > 26.8 | 2.59 µM and 20 µM | 4.53 µM and 37.5 µM |  | > 100 |  | 25.3 µM and 24.1 µM |  | 3.67 µM and 2.98 µM | 23.5 µM and 22 µM
CCN1CCN(c2ccc(Nc3ncc4ccc5ncn(C(C)C)c5c4n3)nc2)CC1 | 0.0402 | 0.0291 | 0.378 µM | 0.134 | 1.69 | 0.132 | 1.61 µM | 0.0312 | 0.55 | 0.0352 | 0.418 | 0.0777 µM | 0.68 µM | 0.111 | 0.727 | 0.108 | 3.94 µM | 0.171 | 0.394 µM | 10.6 µM
Cc1nn(C)c2cc(N(C)c3ccnc(Nc4cccc(S(N)(=O)=O)c4)n3)ccc12 | 6.71 | 3.44 | > 18.1 µM | 4.72 | 21.8 | 6.12 | > 25 µM | 7.43 | > 25 | 11.3 | > 25 | 7.87 µM | > 25 µM | 8.03 | > 25 | 10.8 | > 25 µM | 8.01 | > 25 µM | > 25 µM
O=S(=O)(Nc1ccccn1)c1ccc(N=Nc2ccc(O)c3ncccc23)cc1 | 0.976 | 0.696 | 3.33 µM | 2.59 | 7.03 | 0.638 | 8.41 µM | 0.888 | 22.6 | 0.952 | 25.5 | 0.891 µM | 4.59 µM | 1.11 | 6.03 | 0.388 | 7.04 µM | 0.54 | 4.18 µM | 9.64 µM
C[C@@H]1OCC2(CCN(c3cnc(Sc4ccnc(N)c4Cl)c(N)n3)CC2)[C@@H]1N | 4.71 | 0.926 | > 100 µM | > 100 | > 100 | > 100 | > 100 µM | > 100 | > 100 | 88.7 | > 100 | > 100 µM | > 100 µM | > 100 | > 100 | 9.48 | > 100 µM | 24.2 | > 100 µM | > 100 µM
C=C1C(=O)O[C@H]2[C@H]1CC/C(COC(=O)NCc1cc(OC)cc(OC)c1)=C\CC[C@@]1(C)O[C@@H]21 | 1.29 | 1.51 | 2.95 µM | 1.86 | 3.83 | 1.99 | 4.11 µM | 0.771 | 2.06 | 1.12 | 3.97 | 3.01 µM | 11.6 µM | 1.61 | 4.07 | 3.16 | 11.1 µM | 1.54 | 3.02 µM | 2.8 µM
COc1cc2c3c(n(CCCN4CCCC(O)C4)c(=O)c2cc1OC)-c1cc2c(cc1C3=O)OCO2 (stereo not given) | < 0.005 | 0.96 | 2.24 µM | 5.71 | 14.8 | 0.836 | 2.98 µM | 0.0157 | 0.925 | 0.047 | 7.61 | < 0.005 µM | 6.13 µM | 0.791 | 1.62 | 0.00633 | 0.854 µM | < 0.005 | 0.0384 µM | 0.32 µM
